# Measured values: patent US20220378727A1 (priority 2021, published 2022)
# Where “and” joins values, the source holds several entries; their conditions need not be identical. Equal entries are not always repeated. Where two headings read alike, the source gives them in different places.
# What was measured:
# H1N1 virus [1] = experiment: In vivo therapeutic effect against H1N1 virus, intranasal treatment; parameters: species or system BALB/c mice; conditions: for Viral RNA load in lung compared with PBS group: 3 d.p.i., zanamivir 2 mg/kg i.n., one-way ANOVA; for Viral RNA load in lung compared with PBS group / Survival rate: tamibarotene 0.1 mg/kg; for Survival rate: 14 d.p.i., five i.n. doses from 4 h post 10 p.f.u. H1N1, zanamivir 2 mg/kg, n=7; for Survival rate compared with PBS group: Log-rank test, p<0.01
# Procedure: To evaluate the therapeutic effect of tamibarotene formulation against H1N1 virus, BALB/c mice were i.n. inoculated with 20 μL of virus suspension containing 10 p.f.u. of H1N1 virus under anaesthesia. At 4 h post virus challenge, the first therapeutic dose was initiated and the mice were divided into four groups (11 mice per group) to receive 20 μL of each treatment via i.n. administration: (i) zanamivir solution (2 mg/mL); (ii) unformulated tamibarotene suspension (100 μg/mL); (iii) reconstituted A2-TFN solution (100 μg/mL); and (iv) PBS (as negative control). The dose of tamibarotene was 0.1 mg/kg, and the dose of zanamivir was 2 mg/kg. On day 1 and day 2 post-infection, the therapeutic doses were administered twice a day. On 3 d.p.i., four mice in each group were euthanatized randomly and the lung tissues were harvested for viral load assay by qRT-PCR method. Animal survival, clinical symptoms and body weight were monitored for 14 days or until the humane endpoint (body weight loss more than 20%) was reached. This experiment was conducted in two independent experiments (n=11 in each group).
# in vivo = conditions: BALB/c, mouse, ip, 5 mg/kg; for AUC(0-t): AUC0-8 h; for AUC(0-inf): AUC0-∞—D; for MRT last: MRT0-8 h
# [2] = Dissolution study of fine particle dose in simulated lung fluid; format: physicochemical
# Procedure: The dissolution profile of A2-TFN powders was investigated using a jacketed beaker which contained 100 mL of simulated lung fluid as dissolution medium. The preparation of simulated lung fluid was according to Marques et al. (SLF3 in the article). The temperature was maintained at 37° C. and the medium was stirred at 75 rpm with a magnetic bar. As fine particle dose (FPD, aerodynamic diameter<5 μm) is considered to be the fraction of powder that can deposit in the deep lung region, the FPD of A2-TFN formulation was collected by a Fast Screening Impactor (FSI, Copley Scientific, UK) coupled with Breezhaler® as described before for dissolution study. Approximately 8.5±0.5 mg of A2-TFN powder was dispersed by FSI to separate an FPD (which contained an estimated amount of 0.5 mg of tamibarotene). The powders were placed on a glass fiber filter paper which was then transferred into the jacketed beaker. At pre-determined time intervals, 1 mL of dissolution medium was withdrawn and filtered through 0.45-μm membrane filter. Equal volume of pre-warmed fresh medium was refilled immediately. The unformulated tamibarotene powder was included as control for comparison. The concentration of tamibarotene was quantified by HPLC as described above. The dissolution study was carried out in triplicate.
# H1N1 virus [3] = experiment: Plaque reduction assay for antiviral EC50, MDCK cells; format: cell-based; conditions: Influenza A virus
# influenza A H1N1 virus = experiment: In vivo prophylactic protection against H1N1 virus; parameters: species or system BALB/c mice; conditions: for Lung histopathology (H&E) / Viral PA protein expression in lung (immunofluorescence): 3 d.p.i., data not shown; for Viral RNA load in lung tissues compared with PBS: day 3 post-challenge, 5 mg/kg i.t., one-way ANOVA; for Survival rate compared with PBS group: log-rank test, p<0.01
# Procedure: BALB/c mice were used to investigate the in vivo activity of A2-TFN formulation against influenza A H1N1 virus. The mice were evaluated in divided into four groups (nine mice per group). Prior to virus inoculation, i.t. administration was performed under anesthesia in each group: (i) 20 μL of zanamivir solution (5 mg/mL); (ii) 50 μL of unformulated tamibarotene suspension (2 mg/mL); and (iii) 1 mg of A2-TFN powder. The dose of zanamivir or tamibarotene was 5 mg/kg per mouse. In the fourth group of mice, 50 μL of PBS was i.t. administered as negative control. At 2 h post administration, all the mice were i.n. inoculated with 20 μL of virus suspension containing 100 p.f.u. of HIN virus under anesthesia. Four mice in each group were euthanatized randomly on 3 d.p.i. and the lung tissues were harvested for viral load assay by qRT-PCR method. Animal survival, clinical symptoms and body weight were monitored for 14 days or until the humane endpoint (body weight loss more than 20%) was reached. The lung tissue histopathology of infected mice was examined by hematoxylin and eosin (H&E) and immunofluorescence staining. This experiment was conducted in two independent experiments (n=9 in each group).
# [4] = plasma, i.p. drug suspension, 5 mg/kg tamibarotene, n=5
# SARS-CoV-2 = experiment: Plaque reduction assay for antiviral EC50, Vero E6 cells; format: cell-based; conditions: Severe acute respiratory syndrome coronavirus 2, Vero C1008
# Procedure: Plaque reduction assay was performed to plot the 50% antiviral effective dose (EC50). Vero E6 cells were used for SARS-CoV-2 and MDCK cells for influenza A virus. Briefly, cells were seeded at 4×10^5 cells/well in 12-well tissue culture plates on the day before carrying out the assay. After 24 h of incubation, 50 p.f.u. of SARS-CoV-2 or H1N1 virus were added to the cell monolayer with or without the addition of drug compounds and the plates were further incubated for 1 h at 37° C. in 5% CO2 before removal of unbound viral particles by aspiration of the media and washing once with DMEM. Monolayers were then overlaid with media containing 1% low melting agarose (Cambrex Corporation, New Jersey, USA) in DMEM and appropriate concentrations of individual compound, inverted and incubated as above for another 72 h. The wells were then fixed with 10% formaldehyde (BDH, Merck, Darmstadt, Germany) overnight. After removal of the agarose plugs, the monolayers were stained with 0.7% crystal violet (BDH, Merck) and the plaques counted. The percentage of plaque inhibition relative to the control (i.e., without the addition of compound) wells were determined for each drug compound concentration. The EC50 was calculated using Sigma plot (SPSS) in an Excel add-in ED50V10. The plaque reduction assay experiments were performed in triplicate and repeated twice for confirmation.
# MERS-CoV = conditions: from Yuan, et al., Nature Communications 2019, 10, 120; cited from earlier work
# [5] = Toxicity study in uninfected mice after intratracheal powder; format: in vivo, BALB/c mice; conditions: 1 mg powder intratracheally
# Procedure: HPBCD only powder was prepared according to the same protocol as A2-TFN but without the addition of tamibarotene and tert-butyl alcohol. One milligram of A2-TFN powder or HPBCD powder, or 50 μL of phosphate buffer saline (PBS) was intratracheally administered in healthy BALB/c mice under anesthesia.
# [6] = lung, i.p. drug suspension, 5 mg/kg tamibarotene
# [7] = plasma, i.p. drug suspension, 5 mg/kg tamibarotene
compound,measurement,setting,value
CC1(C)CCC(C)(C)c2cc(NC(=O)c3ccc(C(=O)O)cc3)ccc21 [tamibarotene],Viral RNA load in lung compared with PBS group,H1N1 virus [1],significantly lower
same,Survival rate,H1N1 virus [1],71%
same,Survival rate compared with PBS group,H1N1 virus [1],significantly higher
same,Tmax,in vivo,30 min
same,AUC(0-t),in vivo; [6],2400 ± 300 ng·h/mL
same,AUC(0-t),in vivo; [7],6000 ± 500 ng·h/mL
same,AUC(0-inf),in vivo; [6],500 ± 60 ng·h/mL
same,AUC(0-inf),in vivo; [7],1500 ± 200 ng·h/mL
same,Cmax,"in vivo; Cmax, lung, i.p. drug suspension, 5 mg/kg tamibarotene, n=5",7.4 µM and 2600 ng/mL
same,MRT last,in vivo; [6],36 ± 12 min
same,MRT last,in vivo; [7],90 ± 12 min
same,half-life,"in vivo; T1/2, lung, i.p. drug suspension, 5 mg/kg tamibarotene",30 ± 4.8 min
same,half-life,"in vivo; T1/2, plasma, i.p. drug suspension, 5 mg/kg tamibarotene",108 ± 24 min
same,Cumulative dissolved drug after 24 h compared with A2-TFN powder,"[2]; Student's t-test, p<0.01",significantly lower
same,Drug dissolved,"[2]; within the first hour, 37° C.",approximately 20%
same,EC50,H1N1 virus [3],1.68 ± 0.98 µM
same,Lung histopathology (H&E),influenza A H1N1 virus,Severe alveolar damage and interstitial inflammatory infiltration
same,Viral PA protein expression in lung (immunofluorescence),influenza A H1N1 virus,diminished but remained noticeable in bronchiolar epithelial cells
same,Viral RNA load in lung tissues compared with PBS,influenza A H1N1 virus,significantly lower
same,Survival rate compared with PBS group,influenza A H1N1 virus,significantly higher
same,Time by which all mice reached humane endpoint,influenza A H1N1 virus; single i.t. dose 5 mg/kg 2 h before 100 p.f.u. H1N1,< 9 d.p.i.
same,Cmax,[4],14.2 ± 0.9 µM
same,EC50,SARS-CoV-2,5.8 ± 1.2 µM
same,EC50,MERS-CoV,0.32 ± 0.026 µM
CC(=O)N[C@H]1[C@H]([C@H](O)[C@H](O)CO)OC(C(=O)O)=C[C@@H]1N=C(N)N [zanamivir],Viral RNA load in lung compared with PBS group,H1N1 virus [1],not been significantly different
same,Survival rate,H1N1 virus [1],86%
same,Survival rate compared with PBS group,H1N1 virus [1],significantly higher
same,Lung histopathology (H&E),influenza A H1N1 virus,alleviated
same,Viral PA protein expression in lung (immunofluorescence),influenza A H1N1 virus,diminished but remained noticeable in bronchiolar epithelial cells
same,Survival rate,"influenza A H1N1 virus; 14 d.p.i., single i.t. dose 5 mg/kg 2 h before 100 p.f.u. H1N1, n=5",60%
same,Viral RNA load in lung tissues compared with PBS,influenza A H1N1 virus,no significant difference
same,Survival rate compared with PBS group,influenza A H1N1 virus,significantly higher
2-hydroxypropyl-β-cyclodextrin [HPβCD],Body weight of uninfected mice,[5],recovered more rapidly than A2-TFN group
same,Toxicity in lung histopathology of uninfected mice,[5]; data not shown,No marked toxicity
